Consider 9 molecules from patent publication US4645778A, “2-(N-pyrrolidino)-3-isobutoxy-n-substituted-phenyl-n-benzyl-propylamines, their preparation and pharmaceutical use” (Riom Laboratoires C.E.R.M. "RL-Cerm"S.A., priority 1983, dated 1987).

Like-named read-outs stand apart in the source and are kept apart here.

The test system of one assay is isolated aorta. Nature of the assay: Vascular tropism: anti-calcium effect on rabbit isolated aorta (contraction by calcium chloride). To be noted: for ISOLATED AORTA pA2 / ISOLATED AORTA pD'2: rabbit isolated aorta, K+ depolarised, 37° C., 15 min; for ISOLATED AORTA pA2: competitive antagonism vs calcium chloride; for ISOLATED AORTA pD'2: non-competitive antagonism vs calcium chloride; for vascular anti-calcium activity / vascular tropism (in words): vascular test, summary of Table I. The procedure:
(§1) In vitro, the calcium antagonism activity was investigated in accordance with the methods summarised below.
Investigation of a vascular tropism
A rabbit's isolated aorta, cut into spirals, was placed in a KREBS solution kept at 37° C., free from Ca^++ and enriched with K^+ ([…] of KCL/liter) for depolarisation.
The contracting effect of cumulative concentrations of calcium chloride was investigated and the anti-calcium effect of the compounds studied was evaluated 15 minutes after their addition to the solution in which the aorta was kept.
(§2) The conventional parameters of molecular pharmacology are subsequently determined (pA2 for a competitive antagonism and pD'2 for a non-competitive anatagonism), using the technique of VAN ROSSUM [ARCH. INT. PHARMACODYN. THER. 143, 299-330 (1963)].

A further assay has as its system anaesthetised dog. The assay is described as follows: Anti-angina activity: haemodynamic effects in the anaesthetised dog. To be noted: 5 mg.kg^-1 intravenously; for change in vivo at 5 mg/kg: Canis lupus familiaris, iv; for anti-anginal activity (in words): summary of Table II. The format is in vivo. The protocol:
In vivo, the anti-angina activity was investigated by measuring the haemodynamic effects in the anaesthetised dog, in accordance with the method summarised below.
The following parameters were recorded on the dog anaesthetised with chloralose (100 mg.kg^-1 administered intravenously):
pulse rate, by means of subcutaneous ECG electrodes connected to a BECKMAN cardiotachymeter (branch D II),
coronary arterial flow recorded by means of a STATHAM electromagnetic flowmeter and
antitachycardiac action (inhibition of the positive chronotropic effects of isoprenaline).
These parameters were recorded continuously on a BECKMAN dynograph and at the same time the duration of the action was measured.
The compounds of the invention are administered intravenously at a dose of 5 mg.kg^-1.

Another assay concerns papillary muscle. The assay is described as follows: Cardiac tropism: calcium antagonism on rabbit papillary muscle (inotropic effect of calcium chloride). To be noted: for PAPILLARY MUSCLE pA2 / PAPILLARY MUSCLE pD'2: rabbit papillary muscle; for cardiac anti-calcium activity / cardiac tropism (in words): cardiac test, summary of Table I. The procedure: as §1
Investiqation of a cardiac tropism
A rabbit's papillary muscle was placed in a KREBS-HENSELEIT solution kept at 37° C. and was stimulated electrically at a frequency of 1.5 Hz (5 ms of pulse at 15 V).
The positive inotropic effect of calcium chloride was investigated by the method of cumulative dose-response curves.
The substances to be studied were added to the solution in which the muscle was kept, 15 minutes prior to determining the agonist curves.
as §2

Where [1] appears, read: read-out: CORONARY FLOW Variation.
Setting [2] is: inhibition of positive chronotropic effects of isoprenaline, read-out: ANTI-TACHYCARDIAC ACTION Variation.
[3] abbreviates: inhibition of positive chronotropic effects of isoprenaline.
Where [4] appears, read: 37° C., 15 min preincubation, competitive antagonism vs calcium chloride.

As to `CC(C)COCC(CN(Cc1ccccc1)c1cccc(C(F)(F)F)c1)N1CCCC1` (stereo not shown) [Compound 6], in the assay on isolated aorta, the “ISOLATED AORTA pA2” value came to 5.19 ± 0.37, the “ISOLATED AORTA pD'2” value amounted to 3.73 ± 0.50 and the “vascular anti-calcium activity / vascular tropism (in words)” value is “predominantly vascular tropism”. Further, in the assay on anaesthetised dog, the “CORONARY FLOW Duration” value is on record as 1 min and the “PULSE RATE Duration” value is reported as above 45 min. Moreover, the change in vivo at 5 mg/kg in the assay on anaesthetised dog (setting [1]) was determined as 20%. The change in vivo at 5 mg/kg in the assay on anaesthetised dog (read-out: PULSE RATE Variation) is -32%. The change in vivo at 5 mg/kg in the assay on anaesthetised dog (setting [2]) is -64%. Moreover, the “ANTI-TACHYCARDIAC ACTION Duration” value with anaesthetised dog (setting [3]) is given as above 45 min. Moreover, the “PAPILLARY MUSCLE pA2” value with papillary muscle (at 10^-4 M, 15 min) was found to be 3.41.
As to `CC(C)COCC(CN(Cc1ccccc1)c1ccc(Cl)cc1)N1CCCC1` (stereo not shown) [Compound 4], the “CORONARY FLOW Duration” value in the assay with anaesthetised dog worked out at 3 min. Moreover, the “PULSE RATE Duration” value with anaesthetised dog is above 45 min. Moreover, the change in vivo at 5 mg/kg in the assay on anaesthetised dog (setting [1]) was 32%; in the assay on anaesthetised dog (read-out: PULSE RATE Variation), -27%; with anaesthetised dog (setting [2]), -60%. Moreover, the “ANTI-TACHYCARDIAC ACTION Duration” value in the assay with anaesthetised dog (setting [3]) is recorded as above 45 min.
In the case of `CC(C)COCC(CN(Cc1ccccc1)c1ccc2c(c1)OCO2)N1CCCC1` (stereo not shown) [Compound 11, 2-(N-pyrrolidino)-3-isobutoxy-N-(3,4-methylenedioxy)-phenyl-N-benzyl-propylamine], in the assay with isolated aorta, the “ISOLATED AORTA pA2” value came out at 4.94 ± 0.43, the “ISOLATED AORTA pD'2” value is 4.80 ± 0.05 and the “vascular anti-calcium activity / vascular tropism (in words)” value is given as “about the highest activity”. Besides, in the assay on anaesthetised dog, the “CORONARY FLOW Duration” value amounted to 20 min, the “PULSE RATE Duration” value is listed as above 45 min and the “anti-anginal activity (in words)” value is on record as “most valuable anti-anginal activity”. For the same molecule, the change in vivo at 5 mg/kg with anaesthetised dog (setting [1]) is 116%. For the same molecule, the change in vivo at 5 mg/kg with anaesthetised dog (read-out: PULSE RATE Variation) is -50%. Besides, the change in vivo at 5 mg/kg in the assay with anaesthetised dog (setting [2]) was -47%. Moreover, the “ANTI-TACHYCARDIAC ACTION Duration” value with anaesthetised dog (setting [3]) stood at 45 min. Besides, the “PAPILLARY MUSCLE pD'2” value with papillary muscle (at 10^-4 M) was “total”. In addition, the “cardiac anti-calcium activity / cardiac tropism (in words)” value in the assay with papillary muscle is “about the highest activity”. For the same molecule, the “PAPILLARY MUSCLE pA2” value with papillary muscle (setting [4]) is reported as 5.44 ± 0.26.
Regarding `CC(C)COCC(CN(Cc1ccccc1)c1cc(Cl)cc(Cl)c1)N1CCCC1` (stereo not shown) [Compound 7], the “ISOLATED AORTA pA2” value in the assay with isolated aorta is recorded as 4.70 ±0.60. Also, in the assay on isolated aorta, the “ISOLATED AORTA pD'2” value was found to be 3.85 ± 0.43. Besides, in the assay with anaesthetised dog, the “CORONARY FLOW Duration” value was found to be 5 min. For the same molecule, the “PULSE RATE Duration” value in the assay with anaesthetised dog came to 45 min. Further, the values for the change in vivo at 5 mg/kg with anaesthetised dog (setting [1]), with anaesthetised dog (read-out: PULSE RATE Variation) and in the assay with anaesthetised dog (setting [2]) were 31%, -23% and -54%, respectively. Besides, the “ANTI-TACHYCARDIAC ACTION Duration” value in the assay on anaesthetised dog (setting [3]) stood at 45 min. Moreover, the “PAPILLARY MUSCLE pA2” value in the assay with papillary muscle (at 10^-4 M) is listed as “Inactive”.
For `CC(C)COCC(CN(Cc1ccccc1)c1cccc(Cl)c1)N1CCCC1` (stereo not shown) [Compound 5, 2-(N-pyrrolidino)-3-isobutoxy-N-(3-chloro)-phenyl-N-benzyl-propylamine], in the assay on isolated aorta, the “ISOLATED AORTA pA2” value is 4.83 ± 0.27 and the “ISOLATED AORTA pD'2” value was found to be 4.71 ± 0.20. In the assay with anaesthetised dog, the “CORONARY FLOW Duration” value stood at 15 min, the “PULSE RATE Duration” value is recorded as above 45 min and the “anti-anginal activity (in words)” value is “most valuable anti-anginal activity”. The change in vivo at 5 mg/kg with anaesthetised dog (setting [1]) was determined as 98%. The change in vivo at 5 mg/kg in the assay on anaesthetised dog (read-out: PULSE RATE Variation) was -20%. Also, the change in vivo at 5 mg/kg in the assay on anaesthetised dog (setting [2]) is -45%. In addition, in the assay with anaesthetised dog (setting [3]), the “ANTI-TACHYCARDIAC ACTION Duration” value turned out to be 15 min. The “PAPILLARY MUSCLE pA2” value in the assay with papillary muscle (at 10^-4 M) is on record as “Inactive”.
Take `CC(C)COCC(CN(Cc1ccccc1)c1ccc(Cl)c(Cl)c1)N1CCCC1` (stereo not shown) [Compound 2]: in the assay with anaesthetised dog, the “CORONARY FLOW Duration” value was 10 min, the “PULSE RATE Duration” value is above 45 min and the “anti-anginal activity (in words)” value was “most valuable anti-anginal activity”. In addition, the change in vivo at 5 mg/kg with anaesthetised dog (setting [1]) amounted to 39%. In addition, the change in vivo at 5 mg/kg with anaesthetised dog (read-out: PULSE RATE Variation) was -11%. For the same molecule, the change in vivo at 5 mg/kg in the assay with anaesthetised dog (setting [2]) is -51%. For the same molecule, the “ANTI-TACHYCARDIAC ACTION Duration” value in the assay with anaesthetised dog (setting [3]) is 15 min.
As for `COc1ccc(N(Cc2ccccc2)CC(COCC(C)C)N2CCCC2)cc1` (stereo not shown) [Compound 3], in the assay with isolated aorta, the “ISOLATED AORTA pA2” value came out at 4.70 ± 0.38 and the “ISOLATED AORTA pD'2” value was determined as 4.00 ± 0.24. Moreover, in the assay with anaesthetised dog, the “CORONARY FLOW Duration” value was 20 min, the “PULSE RATE Duration” value is on record as above 45 min and the “anti-anginal activity (in words)” value is recorded as “most valuable anti-anginal activity”. For the same molecule, the change in vivo at 5 mg/kg with anaesthetised dog (setting [1]) was determined as 196%. Besides, in the assay with anaesthetised dog (read-out: PULSE RATE Variation), the change in vivo at 5 mg/kg was -24%. For the same molecule, in the assay on anaesthetised dog (setting [2]), the change in vivo at 5 mg/kg is -63%. For the same molecule, the “ANTI-TACHYCARDIAC ACTION Duration” value in the assay on anaesthetised dog (setting [3]) is on record as 30 min. Also, the “PAPILLARY MUSCLE pD'2” value in the assay with papillary muscle (at 10^-4 M, 15 min) is recorded as 4.5. The “cardiac anti-calcium activity / cardiac tropism (in words)” value in the assay with papillary muscle is recorded as “more marked cardiac tropism”. Further, the “PAPILLARY MUSCLE pA2” value in the assay with papillary muscle (setting [4]) worked out at 4.87 ± 0.40.
As to `Cc1cccc(C)c1N(Cc1ccccc1)CC(COCC(C)C)N1CCCC1` (stereo not shown) [Compound 8], in the assay on isolated aorta, the “ISOLATED AORTA pA2” value came out at 5.21 ± 0.65, the “ISOLATED AORTA pD'2” value was found to be 4.87 ± 0.48 and the “vascular anti-calcium activity / vascular tropism (in words)” value is reported as “noteworthy”. Moreover, in the assay with anaesthetised dog, the “CORONARY FLOW Duration” value is 15 min, the “PULSE RATE Duration” value worked out at 35 min and the “anti-anginal activity (in words)” value is given as “most valuable anti-anginal activity”. In the assay with anaesthetised dog (setting [1]), the change in vivo at 5 mg/kg is 85%. Also, the change in vivo at 5 mg/kg with anaesthetised dog (read-out: PULSE RATE Variation) was -36%. Besides, the change in vivo at 5 mg/kg in the assay with anaesthetised dog (setting [2]) is -28%. Also, the “ANTI-TACHYCARDIAC ACTION Duration” value in the assay on anaesthetised dog (setting [3]) is 15 min. In addition, in the assay with papillary muscle (at 10^-4 M, 15 min), the “PAPILLARY MUSCLE pD'2” value is reported as 3.69. The “PAPILLARY MUSCLE pA2” value in the assay with papillary muscle (at 10^-5 M, 15 min) was 4.67. In addition, the “cardiac anti-calcium activity / cardiac tropism (in words)” value in the assay on papillary muscle is “noteworthy”.
In the case of `Cc1ccc(N(Cc2ccccc2)CC(COCC(C)C)N2CCCC2)cc1` (stereo not shown) [Compound 1], in the assay with isolated aorta, the “ISOLATED AORTA pA2” value worked out at 4.83 ± 0.28 and the “ISOLATED AORTA pD'2” value is reported as 5.08 ± 0.27. For the same molecule, in the assay on papillary muscle, the “cardiac anti-calcium activity / cardiac tropism (in words)” value was “more marked cardiac tropism”. Besides, the “PAPILLARY MUSCLE pA2” value in the assay with papillary muscle (setting [4]) came out at 4.30 ± 0.24. For the same molecule, the “PAPILLARY MUSCLE pD'2” value with papillary muscle (37° C., 15 min preincubation, non-competitive antagonism vs calcium chloride) was determined as 3.81 ± 0.20.
